In paper PMC6514012, “Targeting the neuronal calcium sensor DREAM with small-molecules for Huntington’s disease treatment” (Scientific Reports, 2019):
Changes are numbered by the printed parent chain. Values belong to the molecule of their own block, whether it stands above or below them.

Columns and labels:
GST-DREAM [1] = molecular target: T1, GST-DREAM (Homo sapiens, UniProt Q9Y2W7, Y130A); experiment: SPR, immobilized protein; format: binding; conditions: CM5 chip; compared with wild type
T1 construct: gene KCNIP3
T1 sequence (Q9Y2W7 1-256 Y130A): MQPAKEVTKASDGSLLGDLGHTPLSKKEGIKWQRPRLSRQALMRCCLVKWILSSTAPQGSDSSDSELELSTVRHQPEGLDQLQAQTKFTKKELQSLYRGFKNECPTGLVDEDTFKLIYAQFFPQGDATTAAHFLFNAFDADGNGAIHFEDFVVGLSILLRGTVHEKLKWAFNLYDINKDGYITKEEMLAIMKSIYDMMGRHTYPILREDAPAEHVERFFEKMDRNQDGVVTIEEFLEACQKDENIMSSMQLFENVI

[2] = molecular target: T2, His-DREAM (71–256); rDREAM (Homo sapiens, UniProt Q9Y2W7); experiment: SPR, immobilized protein; conditions: CM4 chip; binding depends on Ca2+ and Mg2+
T2 construct: gene KCNIP3; residues 71-256, His-tagged, recombinant, immobilized on CM4 sensor chip; dimer and monomer in Ca2+
T2 sequence (Q9Y2W7 71-256): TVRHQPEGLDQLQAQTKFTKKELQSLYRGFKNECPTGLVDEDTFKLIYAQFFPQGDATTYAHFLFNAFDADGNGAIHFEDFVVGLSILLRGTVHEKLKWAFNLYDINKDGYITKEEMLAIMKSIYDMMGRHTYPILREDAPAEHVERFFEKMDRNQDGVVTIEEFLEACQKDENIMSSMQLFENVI

GST-DREAM [3] = molecular target: T3, GST-DREAM (Homo sapiens, UniProt Q9Y2W7, Y118A); experiment: SPR, immobilized protein; format: binding; conditions: CM5 chip; compared with wild type
T3 construct: gene KCNIP3
T3 sequence (Q9Y2W7 1-256 Y118A): T1 sequence (Q9Y2W7 1-256 Y130A) with Y118A, A130Y

[4] = molecular target: the molecule itself; experiment: native gel or EMSA; 10% blue native (nondenaturing, nonreducing) polyacrylamide gel; His-DREAM 71-256 (50 ng, 100 nM) with 5 mM CaCl2, incubated 10 min at RT with 10, 30, 100 and 300 nM IQM-PC330; immunodetection with anti-DREAM antibody; dimer and monomer bands

KD [2]: 2.8 ± 0.3 · 10^−5 M
Molecule: CCCCc1ccc(-c2ccc(C(=O)O)c(NC(=O)Cc3ccc(Cl)c(Cl)c3)c2)cc1 [compound 19, 2-[2-(3,4-Dichlorophenyl)acetylamino]-4-(4′-n-butylphenyl)benzoic acid]
SPR, immobilized protein (GST-DREAM [1]): Tyr118Ala or Tyr130Ala showed a substantial decrease in the binding of the two ligands | SPR, immobilized protein (GST-DREAM [3]): Tyr118Ala or Tyr130Ala showed a substantial decrease in the binding of the two ligands

KD [2]: 3.9 ± 0.4 · 10^−5 M
Molecule: CCCCc1ccc(-c2ccc(NC(=O)Cc3ccc(Cl)c(Cl)c3)c(C(=O)O)c2)cc1 [compound 36, 2-[2-(3,4-Dichlorophenyl)acetylamino]-5-(4’-n-butylphenyl)benzoic acid]
SPR, immobilized protein (GST-DREAM [1]): Tyr118Ala or Tyr130Ala showed a substantial decrease in the binding of the two ligands | SPR, immobilized protein (GST-DREAM [3]): Tyr118Ala or Tyr130Ala showed a substantial decrease in the binding of the two ligands

B1: Recombinant His-tagged soluble DREAM protein (aa 71–256) (domain or fragment, UniProt Q9Y2W7 71-256, looked up)
chain: T2 sequence (Q9Y2W7 71-256)
notes: DREAM (downstream regulatory element antagonist modulator; KChIP3, calsenilin), residues 71-256; Seen as dimer and monomer on blue native gels with 5 mM CaCl2; also called rDREAM; recombinant DREAM (amino acids 71–256); source: recombinant protein
stoichiometry N [4]: 2
